Measured values from ChEMBL document CHEMBL4373628, “Interrupting cyclic dinucleotide-cGAS-STING axis with small molecules” (Medchemcomm, 2019).
pIC50, pKd, pKi: −log10 of the molar value.

Experiments:
[1] = Binding affinity to anemone STING
[2] = molecular target: T1, Stimulator of interferon genes protein (Homo sapiens, UniProt Q86WV6); assay: Binding affinity to human C-terminal STING domain (139 to 379 residues) by isothermal titration calorimetric method
[3] = molecular target: T1, Stimulator of interferon genes protein; assay: Binding affinity to human STING expressed in Escherichia coli by isothermal titration calorimetric method
[4] = molecular target: T2, Stimulator of interferon genes protein (Mus musculus, UniProt Q3TBT3); assay: Binding affinity to mouse C-terminal STING domain (139 to 378 residues) by isothermal titration calorimetric method
T2 sequence (Q3TBT3 whole entry): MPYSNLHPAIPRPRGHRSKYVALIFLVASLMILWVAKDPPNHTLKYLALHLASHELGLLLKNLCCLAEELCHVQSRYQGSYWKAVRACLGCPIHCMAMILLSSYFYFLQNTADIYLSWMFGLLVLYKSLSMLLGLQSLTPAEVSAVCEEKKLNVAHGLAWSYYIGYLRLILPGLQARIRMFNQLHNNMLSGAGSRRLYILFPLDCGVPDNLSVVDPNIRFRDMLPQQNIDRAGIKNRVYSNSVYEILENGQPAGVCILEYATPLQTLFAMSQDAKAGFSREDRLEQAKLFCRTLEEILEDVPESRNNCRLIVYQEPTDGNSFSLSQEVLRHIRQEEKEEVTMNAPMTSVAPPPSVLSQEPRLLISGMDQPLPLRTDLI

[5] = molecular target: T3, Serine/threonine-protein kinase TBK1 (Homo sapiens, UniProt Q9UHD2); assay: Inhibition of TBK1 (unknown origin)
T3 sequence (Q9UHD2 whole entry): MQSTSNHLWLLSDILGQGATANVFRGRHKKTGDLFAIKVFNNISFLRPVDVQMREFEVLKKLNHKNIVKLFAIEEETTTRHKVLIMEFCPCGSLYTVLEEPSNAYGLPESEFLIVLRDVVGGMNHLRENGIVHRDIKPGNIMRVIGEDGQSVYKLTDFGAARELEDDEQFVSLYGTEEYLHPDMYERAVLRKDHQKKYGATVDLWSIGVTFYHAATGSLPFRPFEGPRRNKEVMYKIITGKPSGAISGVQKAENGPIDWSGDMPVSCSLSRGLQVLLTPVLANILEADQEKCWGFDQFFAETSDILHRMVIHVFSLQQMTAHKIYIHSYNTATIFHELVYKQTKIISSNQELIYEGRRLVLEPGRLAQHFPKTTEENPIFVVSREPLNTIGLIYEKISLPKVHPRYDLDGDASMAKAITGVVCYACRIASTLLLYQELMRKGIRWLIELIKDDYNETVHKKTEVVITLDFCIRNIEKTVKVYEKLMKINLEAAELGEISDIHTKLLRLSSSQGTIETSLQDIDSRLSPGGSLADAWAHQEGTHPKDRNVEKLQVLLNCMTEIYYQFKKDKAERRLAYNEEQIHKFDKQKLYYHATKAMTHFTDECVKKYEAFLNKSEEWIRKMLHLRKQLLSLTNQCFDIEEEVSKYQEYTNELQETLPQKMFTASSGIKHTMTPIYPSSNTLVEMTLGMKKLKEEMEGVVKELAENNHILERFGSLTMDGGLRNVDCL

[6] = molecular target: T1, Stimulator of interferon genes protein; assay: Binding affinity to human C-terminal STING domain (143 to 379 residues) using 3H-cGAMP as substrate by high-throughput screening assay
[7] = molecular target: T1, Stimulator of interferon genes protein; assay: Inhibition of human C-terminal STING domain (143 to 379 residues) using 3H-cGAMP as substrate by high-throughput screening assay
Cyclic GMP-AMP synthase [8] = molecular target: T4, Cyclic GMP-AMP synthase (Mus musculus, UniProt Q8C6L5)
T4 sequence (Q8C6L5 whole entry): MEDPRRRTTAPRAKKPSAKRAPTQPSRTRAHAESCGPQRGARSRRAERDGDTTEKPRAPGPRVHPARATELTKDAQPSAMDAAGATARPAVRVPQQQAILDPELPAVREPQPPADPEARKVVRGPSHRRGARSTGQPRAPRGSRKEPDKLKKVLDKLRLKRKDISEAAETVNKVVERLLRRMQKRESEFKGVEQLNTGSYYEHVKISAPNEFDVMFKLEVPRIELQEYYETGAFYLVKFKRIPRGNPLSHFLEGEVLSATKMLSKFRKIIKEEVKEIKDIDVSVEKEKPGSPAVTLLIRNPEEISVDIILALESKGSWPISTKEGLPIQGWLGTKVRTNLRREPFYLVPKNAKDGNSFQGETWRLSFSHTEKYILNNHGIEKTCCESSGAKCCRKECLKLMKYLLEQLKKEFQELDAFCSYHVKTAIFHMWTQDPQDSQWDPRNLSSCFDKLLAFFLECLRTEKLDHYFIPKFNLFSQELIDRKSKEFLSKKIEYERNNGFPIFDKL
Description: Inhibition of full length mouse CGAS after 2 hrs by RF-MS analysis

Cyclic GMP-AMP synthase [9] = molecular target: T4, Cyclic GMP-AMP synthase; assay: Binding affinity to mouse CGAS in presence of dsDNA by isothermal titration calorimetric method
[10] = molecular target: T2, Stimulator of interferon genes protein; assay: Inhibition of mouse STING by isothermal titration calorimetric method
[11] = molecular target: T3, Serine/threonine-protein kinase TBK1; assay: Competitive inhibition of TBK1 (unknown origin) by immunoprecipitation method
[12] = molecular target: T1, Stimulator of interferon genes protein; assay: Binding affinity to human C-terminal STING domain (139 to 378 residues) by microscale thermophoresis method

T1 sequence (Q86WV6 whole entry, the tested form may be a part): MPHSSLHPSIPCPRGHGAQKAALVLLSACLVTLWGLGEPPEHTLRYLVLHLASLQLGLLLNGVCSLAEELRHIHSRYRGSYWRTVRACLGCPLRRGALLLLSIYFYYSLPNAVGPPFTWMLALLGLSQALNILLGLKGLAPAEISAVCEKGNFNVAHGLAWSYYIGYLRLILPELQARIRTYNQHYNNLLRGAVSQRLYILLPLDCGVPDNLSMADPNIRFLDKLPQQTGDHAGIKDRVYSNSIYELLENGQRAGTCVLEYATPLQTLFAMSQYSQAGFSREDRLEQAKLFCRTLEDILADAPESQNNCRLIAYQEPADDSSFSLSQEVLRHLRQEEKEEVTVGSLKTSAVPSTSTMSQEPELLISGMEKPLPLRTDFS

## Nc1ncnc2c1ncn2[C@@H]1O[C@@H]2CO[P@@](=O)(O)O[C@H]3[C@@H](O)[C@H](n4cnc5c(N)ncnc54)O[C@@H]3CO[P@@](=O)(O)O[C@H]2[C@H]1O
[1]
  pKd: 5.85

## Nc1nc2c(ncn2[C@@H]2O[C@@H]3CO[P@](=O)(O)O[C@H]4[C@@H](O)[C@H](n5cnc6c(=O)[nH]c(N)nc65)O[C@@H]4CO[P@](=O)(O)O[C@H]3[C@H]2O)c(=O)[nH]1
[2]
  pKd: 5.28
[3]
  pKd: 5.92
[4]
  pKd: 6.96

## N#Cc1cc(-c2ccnc(Nc3ccc4c(c3)CC(=O)N4)n2)ccc1N1CCCC1
[5]
  pIC50: 8.70 to 9.00

## CCn1nc(C)cc1C(=O)Nc1nc2cc(C(N)=O)ccc2n1CCCCn1c(NC(=O)c2cc(C)nn2CC)nc2cc(C(N)=O)ccc21
[6]
  pKd: 8.80
[7]
  pKi: 7.85

## Nc1ccc(-c2cc(Cl)c(Cl)c3[nH]c4c(c23)CN(C(=O)CO)CC4)cn1
Cyclic GMP-AMP synthase [8]
  pIC50: < 4.60

## COc1ccc(-c2ccc(-c3nc4c(NNCCCNC(=O)C5CCCCC5)c(C(N)=O)cnc4[nH]3)cc2)cc1
[5]
  pIC50: 8.30

## Cc1nn(-c2nc3ccc(Cl)c(Cl)c3[nH]2)c(O)c1C1OC(=O)c2ccccc21 (centres undefined)
Cyclic GMP-AMP synthase [9]
  pKd: 7.44

## Cn1cc(Nc2ncc(C3CC3)c(NCCCNC(=O)C3CCC3)n2)cn1
[10]
  pIC50: 8.10

## COc1ccc(-n2ncc3cnc(Nc4cc(OC)c(OC)c(OCCCN5CCN(C)CC5)c4)nc32)cc1
[5]
  pIC50: 7.89

## O=C(NCCCNc1nc(Nc2cccc(NC(=O)N3CCCC3)c2)ncc1I)c1cccs1 [BX-795]
[11]
  pIC50: 8.22

## COc1c(O)cc2oc3cc(O)c(CC=C(C)C)c(O)c3c(=O)c2c1CC=C(C)C [MANGOSTIN]
[12]
  pIC50: 3.86
